Several values for one entry are separate records, joined by “and”; a condition that tells them apart may be missing. Identical values can stand only once.
Legend:
Type in all cases: in vivo
Aedes aegypti mosquitos = assay: Arm-in-cage test, protective efficacy; conditions: for No. probing on treated arm: 30 seconds exposure; for No. probing on treated arm / % PE: per replicate cage; for Total % PE: three cages
Protocol: Additional testing was performed with the lotion formula of example 4 including: bee's wax, soybean oil, edible oil such as sunflower oil, isopropyl alcohol, cinnamon oil, cedar wood oil, citronella oil, turmeric, anise, basil oil, salt, ethyl ester, and water with the following protocols. Aedes aegypti mmosquitoes were obtained from insecticide-susceptible reference strains held at the London School of Hygiene & Tropical Medicine, UK. All mosquitoes are reared and housed under optimal environmental conditions of 25° C. ±2° C. and 80% Relative Humidity with a 12:12 hour photoperiod. Testing was carried out in a testing room maintained at […] and 80% RH with a 12:12 hour photoperiod. For each product, the same person carried out the arm-in-cage testing.
For each product test, three batches of 50 female mosquitoes were placed in cages 30×30×30 cm inside the testing room. Before the start of each test a bare arm with gloved hand was inserted into the cage for 30 seconds to assess the biting readiness of the mosquitoes. Only cages with at least ten mosquitoes landing within 30 seconds were used in subsequent testing. The number of mosquitoes probing the untreated arm was counted at the end of the 30 second test. Following the combined fitness/control test, the product was applied onto the right arm at the WHO standard rate of 1 ml per 600 cm2 ([…] per cm2) for the Mosquito Insect Repellent and DEET, and at a rate of 2 mg per cm′ for the Sunscreen Repellent. The arm was then inserted into the cage for 30 seconds and the number of mosquitoes probing on the arm counted and recorded. The procedure was repeated with a total of three cages. This was repeated for each of the three cages and at hourly intervals until 8 hours post-application or until protection drops below 50%. Each product was tested on a separate test day.
Protective efficacy (PE) was calculated using the following formula: PE=(Mosquitoes probing on control arm—Mosquitoes probing on treated arm)/Mosquitoes probing on control arm×100. The average probing on the control arm during testing was 16, 17 and 21 mosquitoes at the end of the 30 second exposure time, in cages used for testing the Mosquito Insect Repellent Lotion and 8% DEET respectively. The Mosquito Insect Repellent Lotion 100% protection at 0 hours, whereas the 8% DEET provided 100% protection for 1 hour after application (Table 1). The Mosquito Insect Repellent Lotion provided over 50% protection for, 3 hours, whereas 8% DEET provided over 50% protection for 6 hours.

[1] = system: yellow fever mosquitos, Aedes aegypti; assay: In vitro K & D module biting bioassay, compositions of examples 1-3 vs DEET
Protocol: The deterrent effect of the above-described compositions of examples 1 -3 was tested in a controlled environment. In vitro laboratory tests were conducted and measured and compared to DEET and nontreated control groups for yellow fever mosquitos, Aedes aegypti. Bioassays were conducted in nine six-chambered Plexiglas K & D modules stocked with female Aedes aegypti mosquitos as shown in FIGS. 1-3. Five female mosquitos were aspirated into each of the six chambers of the nine modules. Repellant treatments were applied at 26.7 microliters with a pipette and spread with a small brush over 12 square centimeter sections of organdy cloth attached to a flat plastic template containing rectangular openings. The treated cloth covered template was fitted between the K & D module and a lower Plexiglas unit. The lower Plexiglas unit contained shallow surface wells filled with a blood substitute (CDTA and ATP) and covered with a moistened collagen membrane. The blood substitute was heated to 38° C. using water pumped through hose lines attached to the lower units and a water bath supplied with a temperature controlled inversion circulator. Mosquitos were exposed to the treated surfaces by opening sliding doors beneath the modules for 90-second biting counts at five post-treatment time intervals from 1 to 6 hours. Fresh, untreated mosquitos are used for each time interval.
The testing protocol including the in vitro environment provides a rigorous testing of the repellency of the composition as the mosquitos are confined with a blood meal.
An unpaired t-test was conducted on the biting counts between lotion as described herein and the control group where there was no treatment applied between the mosquito and the blood well. […] The statistical factors include t=5.8704 where df=16 and a standard error of difference is equal to 0.530. The two-tailed p value is less than 0.0001. The reduction in biting pressure when using the compositions compared to the control group is significant at the 99.99 level of significance.

[2] = system: yellow fever mosquitoes, Aedes aegypti; assay: In vitro K&D module biting bioassay, example 5 (No-Bite), No-Burn and 7% DEET; conditions: 4 hours post-treatment; p>0.05
Protocol: The deterrent effect of the above-described compositions of example 5 (represented as NO-Bite in FIGS. 7-8) was tested in a controlled environment. In vitro laboratory tests were conducted and measured and compared to DEET and nontreated control groups for yellow fever mosquitos, Aedes aegypti. The repellency of the formulations were compared to a DEET standard, and a non-treated control against yellow fever mosquitoes, Aedes aegypti. The examples were performed in a temperature-controlled laboratory following techniques as disclosed in Klun, J. A., M. A. Kramer, A. Zhang, S. Wang, and M. Debboun. 2008. A quantitative in vitro assay for mosquito deterrent activity without human blood cells. J Am. Mosq. Contr. Assoc. 24:508-512. […] Five colony-reared female Aedes aegypti were aspirated into each chamber (FIG. 1). […] The variance in biting count means by treatment and time intervals was statistically analyzed with SAS Proc ANOVA and statistically tested for significant differences with Tukey's Studentized Range test at p<0.05 and charted with 95% Confidence Intervals (C.I.). Average % repellency was calculated with the following formula and charted by treatment and time interval: (Control Avg. Biting Count—Treatment Avg. Biting Count)÷Control Avg. […]

In the case of `CCN(CC)C(=O)c1cccc(C)c1` [8% DEET, DEET], the “No. probing on treated arm” value (Aedes aegypti mosquitos; 0 hours after application) was 0, the “% PE” value (Aedes aegypti mosquitos; 0 hours after application) was 100.00% and the “Total % PE” value (Aedes aegypti mosquitos; 0 hours after application) was 100.00%. For the same molecule, the “No. probing on treated arm” value (Aedes aegypti mosquitos; 1 hour after application) was 0, the “% PE” value (Aedes aegypti mosquitos; 1 hour after application) was 100.00% and the “Total % PE” value (Aedes aegypti mosquitos; 1 hour after application) was 100.00%. For the same molecule, the “No. probing on treated arm” value (Aedes aegypti mosquitos; 2 hours after application) was 1 and 2 and 0, the “% PE” value (Aedes aegypti mosquitos; 2 hours after application) was 91.67% and 90.91% and 100.00% and the “Total % PE” value (Aedes aegypti mosquitos; 2 hours after application) was 95.00%. For the same molecule, the “No. probing on treated arm” value (Aedes aegypti mosquitos; 3 hours after application) was 2 and 0, the “% PE” value (Aedes aegypti mosquitos; 3 hours after application) was 90.00% and 100.00% and the “Total % PE” value (Aedes aegypti mosquitos; 3 hours after application) was 95.35%. The “No. probing on treated arm” value (Aedes aegypti mosquitos; 4 hours after application) was 2 and 1 and 0, the “% PE” value (Aedes aegypti mosquitos; 4 hours after application) was 91.67% and 94.12% and 100.00% and the “Total % PE” value (Aedes aegypti mosquitos; 4 hours after application) was 95.16%. For the same molecule, the “No. probing on treated arm” value (Aedes aegypti mosquitos; 5 hours after application) was 2 (2×) and 3, the “% PE” value (Aedes aegypti mosquitos; 5 hours after application) was 93.10% and 88.89% and 86.96% and the “Total % PE” value (Aedes aegypti mosquitos; 5 hours after application) was 90.00%. For the same molecule, the “No. probing on treated arm” value (Aedes aegypti mosquitos; 6 hours after application) was 10 and 6 and 7, the “% PE” value (Aedes aegypti mosquitos; 6 hours after application) was 41.18% and 57.14% and 65.00% and the “Total % PE” value (Aedes aegypti mosquitos; 6 hours after application) was 54.90%. The “No. probing on treated arm” value (Aedes aegypti mosquitos; 7 hours after application) was 7 and 6 and 9, the “% PE” value (Aedes aegypti mosquitos; 7 hours after application) was 36.36% and 50.00% (2×) and the “Total % PE” value (Aedes aegypti mosquitos; 7 hours after application) was 46.34%. For the same molecule, the “time after application for which 100% protection was provided” value (Aedes aegypti mosquitos; arm-in-cage, hourly intervals) was 1 h and the “time for which over 50% protection was provided” value (Aedes aegypti mosquitos; arm-in-cage, hourly intervals) was 6 h.

`CCN(CC)C(=O)c1cccc(C)c1` [DEET] was tested, and the repellency ([1]; 6 hour time period) was 87.1%, the “repellency, average for all five time periods” value ([1]; average of five post-treatment time intervals) was 86.52% and the repellency ([1]; initial start time of zero, 90-second biting counts, 26.7 microliters on 12 square centimeter cloth) was 91.9%. For the same molecule, the “biting activity compared with control” value [2] was “no significance difference”.

From patent US11219222B2, “Topical mosquito control product” (Penta 5 USA, LLC, priority 2016, dated 2022)
